Test system: HCV
Assay: Pharmacodynamic evaluation of antiviral drug in C/O^Tg mice by acute HCV infection (HCV RNA copies by qRT-PCR)
Format: in vivo, C/O^Tg male mice
Settings: for viral load in the peripheral blood: started 1 week after HCV injection
Procedure: Plasmid pJ399EM was transcribed in vitro (Han et al., 2009) to obtain a RNA, and then the RNA was electroporated into Huh7.5.1 cells (Pasteur Institute) for virus production during 96 hours and for collection, followed by ultrafiltration and purification to obtain HCV. The C/O^Tg double transgenic mice or the wile type mice were injected at tail-vein with HCV (TCID50=1×10^8/mL) within 1-2 minutes. The serum or liver tissue of the C/O^Tg double transgenic mice or the wile type mice were collected respectively at indicated time 0 hour to 12 months after infection. HCV RNA level in serum (genomes/mL) and liver (genomes/g) were measured by qRT-PCR. The program was performed as follows: 50° C. for 30 minutes, 95° C. for 10 minutes, followed by 50 cycles at 95° C. for 30 seconds, 58° C. for 30 seconds, and 72° C. for 30 seconds. Primers used for detection were as follows: sense (forward primer): […] (represented by SEQ ID NO. 5); anti-sense (reverse primer): […] (represented by SEQ ID NO. 6). The viral load in serum (genomes/mL) of the wild type mice after injection was: 53746900±747977 (12 hours), 25791242±8626787 (2 days), 7026±2797 (4 days), 433±73 (1 week), and then the viral copies in peripheral blood of wild type mice was undetectable after one week. The viral load in peripheral blood (genomes/mL) of the C/O^Tg double transgenic mice after injection was: 3598678±3016340 (12 hours), 1607875±1304933 (2 days), 228942±174178 (4 days), 64505±6821 (1 week), 67622±4612 (2 weeks), 33671±13347 (3 weeks), 6921±4272 (1 month), 6739±4783 (2 months), 403±95 (3 months), 534±125 (4 months), 1375±198 (6 months), 4781±2969 (10 months), 2067±277 (12 months). […] The viral copies cannot be detectable in liver of the wile type mice after injection. The viral copies in the liver (genomes/g) of the C/O^Tg double transgenic mice after injection was: 149676500±26422459.09 (12 hours), 68863260±26554660 (2 days), 30167166±14023164 (4 days), 48183923±49326087 (1 week), 5221675±782099 (2 weeks), 4723475±570250 (3 weeks), 5649760±3372903 (1 month), 3597135±2671267 (2 months), 1831199±34834 (3 months), 3055570±565440 (4 months), 10729851±3954535 (6 months), 14392085±1902774 (10 months), 15543000±124774 (12 months). […] Meanwhile, the liver tissues were used for pathological analysis (H&E stain, Masson's stain), ultrasound, CT and other non-invasive imaging analysis to assess hepatitis, liver damage (fibrosis and cirrhosis) and other typical HCV pathology caused by HCV infection. The double transgenic mice infected by HCV express mild hepatitis symptoms (most ALT<40). The ALT level of the wild type mice was (U/L): 17.8±11.08 (uninfected), 10.5 0.51 (12 hours), 7.0±1.42 (2 days), 29.5±9.19 (4 days), 6.6±3.54 (1 weeks), 28.2±8.84 (2 weeks), 17.7±13.33 (1 month), 27.9±1.69 (2 months), 26.5±0.70 (3 months), 37.4±12.90 (4 months), 27.3±6.01 (10 months), 16.5±6.29 (12 months). The ALT level of the C/O^Tg double transgenic mice was (U/L): 17.8±11.01 (uninfected), 7.8±6.72 (12 hours), 28.0±1.25 (2 days), 57.3±3.88 (4 days), 16.3±7.72 (1 week), 61.0±5.65 (2 week), 21.2±11.16 (1 month), 19.6±0.68 (2 months), 27.4±10.25 (3 months), 36.3±4.06 (4 months), 35.7±5.44 (6 months), 19.5±3.79 (10 months), 232.3±26.89 (12 months). […] The prealbumin levels of the wild type mice after injection were maintained at normal levels (20˜30 mg/L), but the prealbumin levels of the C/O^Tg double transgenic mice cannot be detectable 4 days after infection. […]

Compound	viral load in the peripheral blood (Ribavirin 20 mg/kg i.p. daily, treatment for 1 week)	viral load in the peripheral blood (Ribavirin 20 mg/kg i.p. daily, treatment for 4 weeks)	viral copies in the liver (Ribavirin 20 mg/kg i.p. daily, 1 week after Ribavirin injection) [genomes/mg]	viral copies in the liver (Ribavirin 20 mg/kg i.p. daily, 4 weeks after Ribavirin injection) [genomes/mg]	viral copies in the liver (Telaprevir 200 mg/kg i.p. daily, 1 week after Telaprevir injection) [genomes/mg]
NC(=O)c1ncn([C@@H]2O[C@H](CO)[C@@H](O)[C@H]2O)n1 [Ribavirin]	cannot be detected	cannot be detected	260±226	894±639	–
CCC[C@H](NC(=O)[C@@H]1[C@H]2CCC[C@H]2CN1C(=O)[C@@H](NC(=O)[C@@H](NC(=O)c1cnccn1)C1CCCCC1)C(C)(C)C)C(=O)C(=O)NC1CC1 [Telaprevir]	–	–	–	–	273±301

Source: US9510570B2, “CD81 and OCLN double transgenic mouse and its construction methods” (WUHAN INSTITUTE OF VIROLOGY, CAS, priority 2013, dated 2016)
